The text below walks through data of ChEMBL document CHEMBL1201862, “PubChem BioAssay data set” (2004).

The target in test [1] is Cytochrome P450 2D6 (Homo sapiens, UniProt P10635).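 Further: CYP2D6 member of a cytochrome P450 panel assay.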
In test [2] the target is Cytochrome P450 2C19 (Homo sapiens, UniProt P33261). The test is described as follows: Cytochrome panel assay with activity outcomes. Panel member name: p450-cyp2c19 Compounds with AC50 equal or less than 10 uM are considered active. It is filed as functional. The note with it: read-out: AC50.
Cytochrome P450 2C19, sequence (P33261 whole entry): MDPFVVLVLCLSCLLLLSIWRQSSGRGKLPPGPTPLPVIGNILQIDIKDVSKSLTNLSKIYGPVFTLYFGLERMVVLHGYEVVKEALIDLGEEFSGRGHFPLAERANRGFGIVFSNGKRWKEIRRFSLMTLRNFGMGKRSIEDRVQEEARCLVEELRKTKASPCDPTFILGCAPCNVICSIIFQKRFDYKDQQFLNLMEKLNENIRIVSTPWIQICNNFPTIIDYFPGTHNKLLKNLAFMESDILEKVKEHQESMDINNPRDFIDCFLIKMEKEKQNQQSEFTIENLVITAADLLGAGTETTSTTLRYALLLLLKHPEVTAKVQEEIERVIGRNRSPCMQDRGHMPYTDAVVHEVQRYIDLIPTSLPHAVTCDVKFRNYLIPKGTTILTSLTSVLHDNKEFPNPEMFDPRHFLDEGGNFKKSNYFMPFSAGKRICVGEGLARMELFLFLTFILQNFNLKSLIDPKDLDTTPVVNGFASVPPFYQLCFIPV
Test [3] has as its target T1, Cytochrome P450 1A2 (Homo sapiens, UniProt P05177).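 Further: PubChem cytochrome P450 panel assay, CYP1A2 panel member.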
T1 sequence (P05177 whole entry): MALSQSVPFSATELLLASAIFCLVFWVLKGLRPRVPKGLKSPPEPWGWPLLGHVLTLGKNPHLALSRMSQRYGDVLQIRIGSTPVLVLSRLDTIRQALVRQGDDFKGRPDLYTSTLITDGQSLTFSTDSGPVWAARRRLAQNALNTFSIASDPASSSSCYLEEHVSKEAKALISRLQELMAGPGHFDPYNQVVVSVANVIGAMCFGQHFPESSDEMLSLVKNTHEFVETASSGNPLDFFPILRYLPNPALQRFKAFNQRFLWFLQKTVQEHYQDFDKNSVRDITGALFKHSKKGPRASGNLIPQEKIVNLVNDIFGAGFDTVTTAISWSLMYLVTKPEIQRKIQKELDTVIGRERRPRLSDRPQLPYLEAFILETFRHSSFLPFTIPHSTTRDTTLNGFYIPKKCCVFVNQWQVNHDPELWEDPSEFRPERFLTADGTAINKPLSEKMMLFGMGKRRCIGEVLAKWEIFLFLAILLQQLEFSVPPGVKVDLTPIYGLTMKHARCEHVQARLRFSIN

In test [4] the target is Cytochrome P450 2C9 (Homo sapiens, UniProt P11712).
Cytochrome P450 2C9, sequence (P11712 whole entry): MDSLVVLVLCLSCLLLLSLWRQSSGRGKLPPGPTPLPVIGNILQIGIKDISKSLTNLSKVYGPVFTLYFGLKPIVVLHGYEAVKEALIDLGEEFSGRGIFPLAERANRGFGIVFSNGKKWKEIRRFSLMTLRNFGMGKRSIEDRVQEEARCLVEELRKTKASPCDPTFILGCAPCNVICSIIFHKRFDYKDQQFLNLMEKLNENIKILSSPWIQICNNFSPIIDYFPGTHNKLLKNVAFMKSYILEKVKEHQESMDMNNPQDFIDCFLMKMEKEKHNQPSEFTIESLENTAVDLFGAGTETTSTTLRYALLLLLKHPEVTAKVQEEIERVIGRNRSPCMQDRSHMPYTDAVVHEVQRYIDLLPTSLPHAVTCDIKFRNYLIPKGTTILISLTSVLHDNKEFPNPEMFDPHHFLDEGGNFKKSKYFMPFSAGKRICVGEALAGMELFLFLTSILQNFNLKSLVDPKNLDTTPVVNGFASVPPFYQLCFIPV
Test [5] is described as follows: Trypanosoma cruzi growth suppression in host cells – NIH3T3 host cells, beta-gal luminescence, confirmation (AID 2044).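 Further: intracellular parasites grown in NIH/3T3 mouse fibroblasts as host cells; luminescent beta-galactosidase reporter signal from transgenic T. cruzi replicating inside host cells; inhibitors lower the luminescence signal.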 The class given is functional, cell-based.
Test [6] in a line: NIH3T3 cell viability loss – ATP luminescence, mouse fibroblasts, counter-screen, dose response (AID 2010).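 Further: cells exposed to compound for about 90 hours before reading.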 The class given is functional, cell-based.
Test [7] has as its target T2, Replicative DNA helicase DnaB (Mycobacterium tuberculosis, UniProt P9WMR3).
T2 sequence (P9WMR3 whole entry): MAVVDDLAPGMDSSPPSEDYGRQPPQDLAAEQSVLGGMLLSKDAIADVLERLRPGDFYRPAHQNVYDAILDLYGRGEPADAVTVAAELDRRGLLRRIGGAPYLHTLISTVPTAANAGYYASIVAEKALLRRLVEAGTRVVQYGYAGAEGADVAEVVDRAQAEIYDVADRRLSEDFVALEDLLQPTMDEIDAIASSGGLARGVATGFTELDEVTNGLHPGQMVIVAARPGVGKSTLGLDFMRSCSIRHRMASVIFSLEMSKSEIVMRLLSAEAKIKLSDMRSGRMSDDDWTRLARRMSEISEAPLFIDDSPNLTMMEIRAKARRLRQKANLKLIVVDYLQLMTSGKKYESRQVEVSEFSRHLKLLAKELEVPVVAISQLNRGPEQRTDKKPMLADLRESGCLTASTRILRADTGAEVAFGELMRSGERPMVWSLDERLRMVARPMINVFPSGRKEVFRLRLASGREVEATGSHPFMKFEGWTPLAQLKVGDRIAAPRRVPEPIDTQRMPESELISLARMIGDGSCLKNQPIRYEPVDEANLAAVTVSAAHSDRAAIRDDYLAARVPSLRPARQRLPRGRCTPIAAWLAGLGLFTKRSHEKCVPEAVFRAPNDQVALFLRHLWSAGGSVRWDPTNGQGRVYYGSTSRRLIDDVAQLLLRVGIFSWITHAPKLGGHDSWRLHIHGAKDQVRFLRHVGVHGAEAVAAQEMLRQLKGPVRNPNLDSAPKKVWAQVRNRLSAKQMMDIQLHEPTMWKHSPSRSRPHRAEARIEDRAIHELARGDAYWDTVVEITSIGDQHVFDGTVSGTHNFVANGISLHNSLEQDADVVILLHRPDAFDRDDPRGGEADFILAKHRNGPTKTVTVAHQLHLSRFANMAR
Kind of test: DnaB intein splicing inhibitors, dose response, biochemical, cell-free fluorescence (AID 449749). The class given is functional.

Test [8] concerns the target T3, Protein RecA (Mycobacterium tuberculosis, UniProt P9WHJ3).
T3 sequence (P9WHJ3 whole entry): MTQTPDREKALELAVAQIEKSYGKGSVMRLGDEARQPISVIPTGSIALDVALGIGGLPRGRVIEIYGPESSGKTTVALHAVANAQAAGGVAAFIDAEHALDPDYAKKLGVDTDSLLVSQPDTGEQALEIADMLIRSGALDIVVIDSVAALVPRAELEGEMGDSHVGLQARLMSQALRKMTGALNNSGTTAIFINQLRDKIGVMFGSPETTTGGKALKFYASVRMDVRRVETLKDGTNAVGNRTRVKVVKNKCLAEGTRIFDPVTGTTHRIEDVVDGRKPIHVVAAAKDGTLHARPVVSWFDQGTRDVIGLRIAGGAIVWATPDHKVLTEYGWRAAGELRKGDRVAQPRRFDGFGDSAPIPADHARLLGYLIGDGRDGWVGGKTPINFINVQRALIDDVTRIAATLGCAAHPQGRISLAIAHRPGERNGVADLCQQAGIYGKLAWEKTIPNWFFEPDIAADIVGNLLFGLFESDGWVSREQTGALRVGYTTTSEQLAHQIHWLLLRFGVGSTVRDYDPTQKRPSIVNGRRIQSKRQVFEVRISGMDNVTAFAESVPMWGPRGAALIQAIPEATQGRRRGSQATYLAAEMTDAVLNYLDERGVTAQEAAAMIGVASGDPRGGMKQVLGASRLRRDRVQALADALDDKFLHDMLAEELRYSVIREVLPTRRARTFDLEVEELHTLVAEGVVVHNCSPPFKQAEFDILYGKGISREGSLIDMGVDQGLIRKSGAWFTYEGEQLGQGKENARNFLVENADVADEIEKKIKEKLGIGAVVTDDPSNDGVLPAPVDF
The test is described as follows: Fluorescence Cell-Free Homogeneous Dose Retest to Identify Inhibitors of RecA-Intein Splicing Activity. [Related pubchem assays (depositor defined):AID2097, AID2223, AID489010, AID492950]. It is filed as functional.

Each structure is given as a SMILES string. Calls of active or inactive are those of the source.

Cytochrome P450 2D6, sequence (P10635 whole entry): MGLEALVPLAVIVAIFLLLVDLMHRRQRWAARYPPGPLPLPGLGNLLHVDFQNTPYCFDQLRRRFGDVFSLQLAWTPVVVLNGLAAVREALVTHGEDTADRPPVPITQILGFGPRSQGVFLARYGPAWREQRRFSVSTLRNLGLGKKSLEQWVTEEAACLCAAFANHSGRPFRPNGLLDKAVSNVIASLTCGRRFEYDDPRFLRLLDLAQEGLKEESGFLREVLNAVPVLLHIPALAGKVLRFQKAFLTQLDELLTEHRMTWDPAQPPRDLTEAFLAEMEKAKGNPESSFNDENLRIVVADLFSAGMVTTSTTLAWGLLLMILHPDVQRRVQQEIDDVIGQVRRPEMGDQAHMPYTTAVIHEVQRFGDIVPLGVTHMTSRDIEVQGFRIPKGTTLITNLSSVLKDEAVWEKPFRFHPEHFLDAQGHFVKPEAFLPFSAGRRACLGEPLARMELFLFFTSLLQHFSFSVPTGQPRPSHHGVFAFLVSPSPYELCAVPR

`CCNc1ncc2nc(C)c(=O)n(Cc3cccc(OC)c3)c2n1`: in test [1], the AC50 is 25.1 µM (inconclusive). Consider `CC(C)n1nnnc1SCC(=O)NCCc1ccccc1`, for which the AC50 in test [1] is 25.1 µM (inconclusive).

Consider `O=C(NNC(=O)c1cccnc1)Nc1cccc2ccccc12`, for which the figures for the AC50 in test [2] and in test [3] were 28.2 µM (inconclusive) and 14.1 µM (inconclusive), respectively. For the compound `Cc1nnc(NC(=O)CCC(=O)NCc2cccs2)s1`, the figures for the AC50 in test [2] and in test [4] were 22.4 µM (inconclusive) and 31.6 µM (inconclusive), respectively. Regarding `CCN=C(Nc1cccc(F)c1)SC1CC(=O)N(c2ccc(OC)cc2)C1=O` (configuration not stated), the AC50 in test [1] is 14.1 µM (inconclusive). On to `CC1CN(C(=S)NC(=O)c2ccc([N+](=O)[O-])cc2)CC(C)O1` (configuration not stated), for which the values for the AC50 in test [2] and in test [3] were 31.6 µM (inconclusive) and 12.6 µM (inconclusive), respectively. Consider `CN(C)c1nc(NCc2ccccc2)nc(N/N=C/c2ccc(Cl)cc2Cl)n1`, for which, in test [2], the AC50 was 1 µM (inconclusive). For `CNC(=O)COC(=O)c1cc2c(C)nn(-c3ccc(F)cc3)c2s1`, the AC50 is 39.8 µM (inconclusive) in test [2] and 1.12 µM (inconclusive) in test [4]. For `COC(=O)[C@H]1C(=O)[C@H](C(=O)OC)[C@@H]2CC[C@H]1N2C`, in test [3], the AC50 is 0.794 µM (inconclusive).

Consider `c1ccc(Nc2nc(-c3ccc4c(c3)OCO4)nc3ccccc23)cc1`, for which the AC50 in test [1] is 39.8 µM (inconclusive). The same measure, in the same setting: then `COc1cc([N+](=O)[O-])ccc1NC(=O)CCCOc1cccc(C)c1`, with 15.8 µM (inconclusive). `Cc1ccccc1NS(=O)(=O)c1cc(C(=O)Nc2cccc(N(C)S(C)(=O)=O)c2)ccc1C`: the AC50 in test [1] and in test [3] was 17.8 µM (inconclusive) in each case.

Turning to `CC(=O)Oc1ccccc1C(=O)Oc1ccccc1C(=O)O` [DIPLOSALSALATE], the AC50 was 12.6 µM (inconclusive) in test [3] and 15.8 µM (inconclusive) in test [4]. For the compound `COc1ccc2[nH]cc(CCNc3ncncc3-c3ccc(C(=O)N(C)C)cc3)c2c1`, the AC50 in test [3] was 20 µM (inconclusive). With `NC(=O)COc1c(F)cc(SCCNS(=O)(=O)c2ccccc2)cc1F`, the AC50 in test [3] and in test [4] was 31.6 µM (inconclusive) in each case. With `COc1ccc2c(c1)CCc1c(C(=O)N3CCCCCC3)noc1-2`, the AC50 in test [1] is 15.8 µM (inconclusive); in test [4], 25.1 µM (inconclusive). Regarding `Cc1ccc(-c2cc(-c3nnc(SCC(=O)NC(C)C(C)C)n3N)c3ccccc3n2)cc1` (configuration not stated), the AC50 in test [2] was 15.8 µM (inconclusive); in test [3], 31.6 µM (inconclusive).

As to `C/C(Cn1nc([N+](=O)[O-])cc1C)=N\NC(=O)c1ccc(O)cc1O`, the AC50 in test [2] was 7.08 µM (inconclusive); in test [3] it was 25.1 µM (inconclusive). As to `Cc1ccc(NC(=S)N2CCN(CCN3C(=O)c4cccc5cccc(c45)C3=O)CC2)cc1`, the EC50 in test [5] is 0.855 µM (active); in test [6], > 60 µM (not active). The AC50 in test [2] was 15.8 µM (inconclusive); in test [3], 20 µM (inconclusive). For the compound `c1ccc(-c2ccccn2)nc1`, in test [3], the AC50 was 25.1 µM (inconclusive). `O=C(CNS(=O)(=O)c1ccc(Br)s1)N1CCC(N2CCCCC2)CC1`: the AC50 in test [2] is 20 µM (inconclusive). Turning to `COc1ccc(C(=O)Nc2cccc(/C(C)=N/NC(=O)c3ccc([N+](=O)[O-])cc3)c2)cc1OC`, the concentration at half-maximal activity (AC50) was 31.6 µM (inconclusive) in test [2] and 2.51 µM (inconclusive) in test [4]. With `CCOC(=O)c1cc(C(=O)OCC)cc(-n2cc(O)c(C(=O)OCC)n2)c1`, in test [1], the AC50 is 3.16 µM (inconclusive). Consider `O=C(CC[S+]([O-])NCc1ccccc1)NCc1ccccc1` (configuration not stated), for which the AC50 in test [7] was > 380 µM (inactive). In test [8], the EC50 is > 380 µM (inactive). Regarding `Cc1ccccc1NC(=O)CSc1nc(N2CCCCC2)nc(N2CCCCC2)n1`, the results for the AC50 in test [3] and in test [4] were 3.55 µM (inconclusive) and 0.00891 µM (inconclusive), respectively.

`COC(=O)[C@@]1(Cc2ccccc2)[C@H]2c3cc(C(=O)N(C)C)n(CCN4CNCC4=O)c3C[C@H]2CN1C(=O)c1ccccc1`: the AC50 in test [2] is 31.6 µM (inconclusive); in test [3], 5.01 µM (inconclusive); in test [4] it was 25.1 µM (inconclusive). On to `CS(=O)(=O)Nc1cccc(-c2cncnc2Nc2ccc(F)cc2)c1`, for which the AC50 in test [1] was 20 µM (inconclusive).

For the compound `c1cc(CN2CC3(CCNCC3)C2)ccn1`, the AC50 in test [1] was 39.8 µM (inconclusive).

Turning to `O=C(c1cnccn1)N1CCC2(CCCN(C(c3ccccc3)c3ccccc3)C2)CC1`, the AC50 in test [2] was 25.1 µM (inconclusive); in test [3] it was 20 µM (inconclusive).

As for `COc1ccc(O[C@H]2C=C[C@@H](c3ccccc3)O[C@H]2COC(=O)CC/C(C)=N\O[C@@H](C)c2cn([C@H]3COC[C@H]3O)nn2)cc1`, in test [1], the AC50 is 7.94 µM (inconclusive). For the compound `O=C(NCCc1c[nH]c2ccccc12)[C@H]1C[C@@H]1[C@H](NP(=O)(c1ccccc1)c1ccccc1)c1ccccc1`, the AC50 in test [3] was 12.6 µM (inconclusive). For the compound `O=[N+]([O-])c1ccc(NN=C2c3ccccc3Cc3ccccc32)c([N+](=O)[O-])c1`, in test [3], the AC50 was 0.794 µM (inconclusive). Consider `COc1ccc(-n2nnnc2-c2cn(C)nc2C(F)(F)F)cc1`, for which the AC50 in test [3] was 25.1 µM (inconclusive); in test [4], 28.2 µM (inconclusive).

For `CCC1C(=O)N(c2nc(C)cc(C)n2)N=C1C` (configuration not stated), the AC50 in test [7] was 8.34 µM (active). The EC50 in test [8] was 3.3 µM (active). Turning to `CC1=NN(Cc2ccccc2)C(=O)C1C(c1ccncc1)C(C#N)C#N` (configuration not stated), in test [7], the AC50 was 9.46 µM (active). Besides, the EC50 in test [8] was 3.52 µM (active).

Turning to `CC(=O)c1c(O)cc(=O)n(-c2ccccc2)c1-c1ccc(C)cc1`, the AC50 in test [1] was 0.00501 µM (inconclusive); in test [4], 15.8 µM (inconclusive). Regarding `CCc1c(C(=O)NCc2ccc3c(c2)OCO3)[nH]c(C)c1C(C)=O`, the AC50 in test [1] is 20 µM (inconclusive); in test [4], 10 µM (inconclusive).

`CCCN[C@@H](C)C(=O)Nc1c(C)csc1C(=O)OC`: in test [3], the AC50 was 12.6 µM (inconclusive).
